Laboratory results from article PMC1307573 (Journal of Insect Science, 2005).

Tests used:
Gycα-99B/β-100B = Gycα-99B/β-100B (Drosophila melanogaster, UniProt Q07093+Q9VA09); type: biochemical
Gyc-88EL [1] = target: T1, Gyc-88EL (Drosophila melanogaster, UniProt Q8INF0); type: biochemical
T1 sequence (Q8INF0 1-1097): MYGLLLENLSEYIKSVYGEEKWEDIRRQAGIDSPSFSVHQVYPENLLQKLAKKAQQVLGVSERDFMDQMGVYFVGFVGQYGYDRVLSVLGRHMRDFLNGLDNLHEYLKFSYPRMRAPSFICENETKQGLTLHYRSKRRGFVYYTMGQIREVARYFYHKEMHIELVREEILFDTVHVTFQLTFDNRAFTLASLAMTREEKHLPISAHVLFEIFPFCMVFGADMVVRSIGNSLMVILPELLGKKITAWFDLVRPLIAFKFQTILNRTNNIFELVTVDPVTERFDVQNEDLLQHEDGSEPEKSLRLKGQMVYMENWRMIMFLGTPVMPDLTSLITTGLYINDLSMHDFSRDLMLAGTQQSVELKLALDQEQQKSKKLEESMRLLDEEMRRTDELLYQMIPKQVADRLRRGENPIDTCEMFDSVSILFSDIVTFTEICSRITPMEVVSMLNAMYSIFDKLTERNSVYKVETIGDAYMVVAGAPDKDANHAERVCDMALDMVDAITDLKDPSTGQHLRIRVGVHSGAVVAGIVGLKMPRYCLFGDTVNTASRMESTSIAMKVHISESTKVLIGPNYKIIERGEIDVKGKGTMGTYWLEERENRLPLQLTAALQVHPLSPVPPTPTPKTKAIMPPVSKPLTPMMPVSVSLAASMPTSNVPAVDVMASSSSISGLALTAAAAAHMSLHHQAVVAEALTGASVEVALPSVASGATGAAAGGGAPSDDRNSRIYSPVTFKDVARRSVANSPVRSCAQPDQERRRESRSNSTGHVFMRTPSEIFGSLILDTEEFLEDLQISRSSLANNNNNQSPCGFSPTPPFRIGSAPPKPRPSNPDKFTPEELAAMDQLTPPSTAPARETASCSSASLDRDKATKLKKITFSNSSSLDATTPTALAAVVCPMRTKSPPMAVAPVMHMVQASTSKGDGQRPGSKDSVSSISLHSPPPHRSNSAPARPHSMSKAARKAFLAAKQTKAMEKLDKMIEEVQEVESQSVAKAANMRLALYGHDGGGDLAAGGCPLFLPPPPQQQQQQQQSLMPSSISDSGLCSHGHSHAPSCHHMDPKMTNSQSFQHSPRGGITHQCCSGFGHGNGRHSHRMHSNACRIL

Gyc-88EL/89Da = Gyc-88EL/89Da (Drosophila melanogaster, UniProt Q8INF0+Q9VEU6); type: biochemical
Gyc-88EL/89Db [2] = target: T2, Gyc-88EL/89Db (Drosophila melanogaster, UniProt Q8INF0+Q9VEU5); type: biochemical; conditions: for activation by NO-independent activator: COS-7 cell extracts, 4mM Mg2+
Gyc-88EL/89Db [3] = target: T2, Gyc-88EL/89Db; conditions: ref Langlais et al. 2004; cited from earlier work
Gyc-88EL [4] = target: T1, Gyc-88EL; conditions: ref Langlais et al. 2004, cited from earlier work
[5] = NO donor; cited from earlier work

Sequence of Gyc-88EL/89Da (Q9VEU6 whole entry, one chain of several): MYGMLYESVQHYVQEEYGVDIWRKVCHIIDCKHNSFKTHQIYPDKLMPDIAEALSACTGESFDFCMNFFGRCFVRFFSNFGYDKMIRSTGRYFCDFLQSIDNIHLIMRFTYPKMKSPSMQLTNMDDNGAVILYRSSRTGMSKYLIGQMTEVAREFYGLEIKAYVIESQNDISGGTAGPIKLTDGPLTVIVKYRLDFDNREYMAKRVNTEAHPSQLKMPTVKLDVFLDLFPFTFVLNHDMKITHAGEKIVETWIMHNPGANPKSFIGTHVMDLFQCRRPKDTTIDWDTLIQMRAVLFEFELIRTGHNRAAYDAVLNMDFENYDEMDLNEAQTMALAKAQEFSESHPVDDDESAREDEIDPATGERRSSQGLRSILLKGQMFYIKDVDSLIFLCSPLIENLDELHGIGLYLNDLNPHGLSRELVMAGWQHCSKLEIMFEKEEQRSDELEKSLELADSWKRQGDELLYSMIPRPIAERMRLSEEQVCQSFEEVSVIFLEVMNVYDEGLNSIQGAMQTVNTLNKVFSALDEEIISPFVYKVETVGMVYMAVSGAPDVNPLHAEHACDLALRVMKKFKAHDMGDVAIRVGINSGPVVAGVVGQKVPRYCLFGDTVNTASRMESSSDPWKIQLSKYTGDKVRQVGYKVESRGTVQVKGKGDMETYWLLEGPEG
T2 sequence (Q9VEU5 whole entry, one chain of several): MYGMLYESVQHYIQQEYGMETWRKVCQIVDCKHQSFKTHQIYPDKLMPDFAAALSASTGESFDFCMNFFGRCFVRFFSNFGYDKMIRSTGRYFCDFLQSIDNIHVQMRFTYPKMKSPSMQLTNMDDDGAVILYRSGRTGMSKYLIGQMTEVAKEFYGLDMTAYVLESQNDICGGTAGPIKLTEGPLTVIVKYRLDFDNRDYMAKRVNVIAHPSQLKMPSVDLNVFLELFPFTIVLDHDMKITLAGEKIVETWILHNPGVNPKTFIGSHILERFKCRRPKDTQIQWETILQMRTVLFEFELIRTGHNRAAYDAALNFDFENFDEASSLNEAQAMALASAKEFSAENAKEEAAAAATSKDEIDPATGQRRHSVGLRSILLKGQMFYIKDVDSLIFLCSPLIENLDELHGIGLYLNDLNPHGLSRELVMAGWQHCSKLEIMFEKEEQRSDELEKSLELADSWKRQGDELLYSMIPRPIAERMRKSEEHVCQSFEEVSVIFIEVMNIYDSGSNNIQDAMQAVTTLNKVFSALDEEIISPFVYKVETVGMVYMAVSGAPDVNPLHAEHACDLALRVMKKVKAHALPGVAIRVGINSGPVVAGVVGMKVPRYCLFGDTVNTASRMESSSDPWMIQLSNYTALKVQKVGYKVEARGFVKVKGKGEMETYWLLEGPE

With `Nc1nc(-c2nn(Cc3ccccc3F)c3ncccc23)ncc1C1CC1` [BAY 41-2272] the EC50 (Gycα-99B/β-100B) was 7.3 µM, the “activation at 30 μM” value (Gycα-99B/β-100B; 30 μM, 4mM Mg2+) was “over 100 fold” and the “activation by NO-independent activator” value (Gyc-88EL [1]; COS-7 cell extracts, 4mM Mg2+) was “None of the atypical guanylyl cyclase subunit combinations showed any activation”. The “activation by NO-independent activator” value (Gyc-88EL/89Da; COS-7 cell extracts, 4mM Mg2+) was “None of the atypical guanylyl cyclase subunit combinations showed any activation” and the “activation by NO-independent activator” value (Gyc-88EL/89Db [2]) was “None of the atypical guanylyl cyclase subunit combinations showed any activation”.
In the case of `CCN(CC)/[N+]([O-])=N/O` [DEA-NONOate, diethylamine- (DEA)-NONOate], the “activation at 100 μM” value (Gyc-88EL/89Db [3]) is given as “did not significantly activate”, the “activation at 100 μM” value (Gyc-88EL [4]; 100 μM) is given as “did not significantly activate” and the “maximal stimulation of guanylyl cyclase activity” value (Gyc-88EL [1]; COS-7 cell extracts, 4mM Mg2+) is given as “No stimulation”. The “maximal stimulation of guanylyl cyclase activity” value (Gyc-88EL/89Da; COS-7 cell extracts, 4mM Mg2+) was “No stimulation”, the EC50 (Gyc-88EL/89Db [2]) was about 100 nM and the “DEA-NONOate-stimulated guanylyl cyclase activity” value (Gyc-88EL/89Db [2]; 1 μM DEA-NONOate, absence of ODQ, basal 208 ± 19) was 676 ± 70 fmoles cGMP/min/mg protein. For the same molecule, the “concentration of maximal activation” value (Gyc-88EL/89Db [2]; bell-shaped response) was “about 1 μM”.
In the case of `Nc1nc2c(ncn2[C@@H]2O[C@H](COP(=O)(O)OP(=O)(O)OP(=O)(O)O)[C@@H](O)[C@H]2O)c(=O)[nH]1` [GTP], the “Vmax Mn/Mg” value (Gycα-99B/β-100B; ratio of Vmax in Mn2+ to Mg2+) is reported as 96.7, the “Vmax Mn/Mg” value (Gyc-88EL [1]; ratio of Vmax in Mn2+ to Mg2+) is reported as 1.71 and the “Vmax Mn/Mg” value (Gyc-88EL/89Da; ratio of Vmax in Mn2+ to Mg2+) is reported as 46.9. For the same molecule, the “Vmax Mn/Mg” value (Gyc-88EL/89Db [2]; ratio of Vmax in Mn2+ to Mg2+) was 1.81.
In the case of `CCNCCN(CC)N(O)N=O` [NOC-12], the half-life [5] is listed as 327 min, the EC50 (Gyc-88EL/89Da) is listed as about 2 µM and the EC50 (Gyc-88EL/89Db [2]) is listed as about 2000 nM.
In the case of `O=c1onc2cnc3ccccc3n12` [ODQ, 1H-[1,2,4]oxadiazolo [4,3,-a]quinoxaline-1-one], the “blocking of the NO-stimulation” value (Gycα-99B/β-100B; all forms of the soluble guanylyl cyclases) is given as “effective at blocking the NO-stimulation”, the “inhibition of the activation by sodium nitroprusside” value (Gyc-88EL [4]) is given as “ineffective” and the “inhibition of NOC-12-stimulated activity” value (Gyc-88EL/89Da; 100 μM ODQ, data not shown) is given as “inhibited”. The “DEA-NONOate-stimulated guanylyl cyclase activity in the presence of ODQ” value (Gyc-88EL/89Db [2]; 1 μM DEA-NONOate + 100 μM ODQ, 676 ± 70 in the absence) was 141 ± 21 fmoles cGMP/min/mg protein, the “inhibition of NOC-12-stimulated activity” value (Gyc-88EL/89Db [2]; 100 μM ODQ, data not shown) was “inhibited” and the “basal guanylyl cyclase activity in the presence of ODQ” value (Gyc-88EL/89Db [2]; 100 μM ODQ, 208 ± 19 in the absence) was 237 ± 13 fmoles cGMP/min/mg protein.
With `CC(=O)NC(C(=O)O)C(C)(C)SN=O` (centres unmarked) [SNAP, S-nitroso-N-acetylpenicillamine] the EC50 for activation (Gyc-88EL [1]; COS-7 cell extracts, 4mM Mg2+) was “not saturated with 100 μM SNAP”, the EC50 (Gyc-88EL/89Da) was about 10 µM and the EC50 (Gyc-88EL/89Db [2]) was about 10000 nM.
In the case of `OCc1ccc(-c2nn(Cc3ccccc3)c3ccccc23)o1` [YC-1], the “activation by NO-independent activator” value (Gycα-99B/β-100B) is reported as “only activate the conventional enzyme”, the “activation by NO-independent activator” value (Gyc-88EL [1]; COS-7 cell extracts, 4mM Mg2+) is reported as “insensitivity” and the “activation by NO-independent activator” value (Gyc-88EL/89Da; COS-7 cell extracts, 4mM Mg2+) is reported as “insensitivity”. The “activation by NO-independent activator” value (Gyc-88EL/89Db [2]) was “insensitivity”.
